≈ marks a conversion by molar mass, not a printed value. Where “and” joins values, the source holds several entries; their conditions need not be identical. Equal values may be shown once. Read-outs that look alike come from different tables or passages of the source. One block for each compound: values may come before it.
What was measured:
[1] = system: S. Aureus; test: MIC, S. Aureus; assay type: cell-based; conditions: for MIC: Staphylococcus aureus
Procedure: (§1) The MIC assays are carried out in 150 μL volume in duplicate in 96-well clear flat-bottom plates. The bacterial suspension from an overnight culture growth in appropriate medium is added to a solution of test compound in 4% DMSO in water. Final bacterial inoculum is approximately 10^5-10^6 CFU/well. […] Both ampicillin and tetracycline are used as antibiotic-positive controls in each screening assay for S. pyogenes, E. coli imp-, E. coli, S. aureus, E. faecalis, K. pneumoniae and P. vulgaris. Ciprofloxacin is used as an antibiotic positive control in each screening assay for P. aeruginosa.

[2] = system: E. Coli; test: MIC, E. Coli; assay type: cell-based; conditions: for MIC: Escherichia coli
Procedure: as §1

[3] = target: 16S ribosomal subunit RNA target; test: Mass spectrometry based binding assay (FTICR), 16S
Procedure: In a typical experiment, 10 μL of an aqueous solution containing 100 mM ammonium acetate buffer, […], and 33% isopropyl alcohol (to aid ion desolvation) was prepared with different concentrations of each ligand or ligand mixture Samples were introduced into the electrospray ionization source (negative ionization mode) at 1 μL/min and ions were stored for 1 sec in an RF-only hexapole following desolvation. The abundances were integrated from the respective ions for free RNA and the ligand-RNA complex. The primary (1:1 RNA:ligand) and secondary (1:2 complex, if observed). […] The peak ratios were measured at each concentration, then a plot of complex/free RNA versus concentration of ligand added was fitted to a second (or higher) order binding polynomial to determine the KD.

[4] = target: 18S ribosomal subunit RNA target; test: Mass spectrometry based binding assay (FTICR), 18S
Procedure: In a typical experiment, 10 μL of an aqueous solution containing 100 mM ammonium acetate buffer, 2.5 or 5 μM of each RNA, and 33% isopropyl alcohol (to aid ion desolvation) was prepared with different concentrations of each ligand or ligand mixture Samples were introduced into the electrospray ionization source (negative ionization mode) at 1 μL/min and ions were stored for 1 sec in an RF-only hexapole following desolvation. The abundances were integrated from the respective ions for free RNA and the ligand-RNA complex. The primary (1:1 RNA:ligand) and secondary (1:2 complex, if observed). […] The peak ratios were measured at each concentration, then a plot of complex/free RNA versus concentration of ligand added was fitted to a second (or higher) order binding polynomial to determine the KD.

[5] = system: E. coli S30 bacterial extract (pBestLuc firefly luciferase reporter); test: Coupled bacterial transcription/translation assay; assay type: biochemical; conditions: read-out: Trans/Trans IC50
Procedure: The DNA template, pBestLuc™ (Promega), is a plasmid containing a reporter gene for firefly luciferase fused to a strong tac promoter and ribosome binding site. Messenger RNA from 1 μg pBestLuc is transcribed and translated in E. coli S30 bacterial extract in the presence or absence of test compound. Compounds are tested in a black 96 well microtiter plate with an assay volume of 35 μL. […] The transcription/translation reaction is incubated for 35 minutes at 37° C. followed by detection of functional luciferase with the addition of 30 μL LucLite™ (Packard). Light output is quantitated on a Packard TopCount.

[6] = system: Staphylococcus aureus (Smith Strain ATCC 13709); test: Staphylococcus aureus mouse protection assay; assay type: in vivo, mice; conditions: Staph Conc. 10^6, 10% Mucin, the 13th table
Procedure: Two of the novel aminoglycoside compounds of the invention were examined for their anitbacterial activity against staphylococcus aureus. Mice were fed with autoclaved commercial food pellets and sterile water ad libitum. Animals were inoculated intraperitoneally with 0.5 mL/mouse of the indicated concentration of S. aureus (ATCC 13709) containing 10% mucin. There were 10 mice in each treatment group and compounds were administered subcutaneously one and 3 hour after infection. Compounds 15a (R4═R5═CH3) and 15j (R4═H, R5═(CH2)2C6H5)) were used at 75 mg/kg, 37.5 mg/kg, 18.8 mg/kg, 9.4 mg/kg, 4.7 mg/kg, 2.3 mg/kg, 1.17 mg/kg and 0.5 mg/kg. Amakacin, paromomycin and neomycin were used as the positive controls at concentrations of 2 mg/kg, 1 mg/kg and 0.5 mg/kg.
Test compound was administered as an aqueous buffer solution (phosphate buffered saline (PBS), pH=7.4).

MIC ([1]; Example 107): 5 to 10 µM (≈ 3.92 to 7.84 µg/mL) | MIC ([2]; Example 107): 20 to 40 µM (≈ 15.7 to 31.4 µg/mL)
Compound: NC[C@@H]1O[C@H](O[C@H]2[C@@H](OCCOCCCC3CCCCC3)[C@H](O[C@@H]3[C@@H](O)[C@H](N)C[C@H](N)[C@H]3O[C@H]3O[C@H](CO)[C@@H](O)[C@H](O)[C@H]3N)O[C@@H]2CO)[C@H](N)[C@@H](O)[C@@H]1O [Compound 12b]

MIC ([1]; Example 107): 3 to 5 µM (≈ 2.2 to 3.67 µg/mL) | MIC ([2]; Example 107): 20 to 40 µM (≈ 14.7 to 29.4 µg/mL)
Compound: NC[C@@H]1O[C@H](O[C@H]2[C@@H](OCCCc3ccccc3)[C@H](O[C@@H]3[C@@H](O)[C@H](N)C[C@H](N)[C@H]3O[C@H]3O[C@H](CO)[C@@H](O)[C@H](O)[C@H]3N)O[C@@H]2CO)[C@H](N)[C@@H](O)[C@@H]1O [Compound 14b]

Compound: NCCCCNCC1OC(OC2C(N)CC(N)C(O)C2OC2OC(CO)C(OC3OC(CN)C(O)C(O)C3N)C2O)C(N)C(O)C1O (stereo not drawn) [Compound 15f]
Kd ([3]; Example 108): 6300 nM | MIC S. Aureus ([1]; Example 108): 10 to 20 µM | Kd ([4]; Example 108): 6000 nM | MIC E. Coli. ([2]; Example 108): 2.5-5^ uM

Compound: Cc1ccc(CCNCC2OC(OC3C(N)CC(N)C(O)C3OC3OC(CO)C(OC4OC(CN)C(O)C(O)C4N)C3O)C(N)C(O)C2O)cc1 (stereo not drawn) [Compound 15g]
MIC S. Aureus ([1]; Example 109): 0.6 to 1.2 µM | MIC E. Coli. ([2]; Example 109): 2.5-5^ uM

MIC S. Aureus ([1]; Example 109): 0.3 to 0.6 µM | MIC E. Coli. ([2]; Example 109): 2.5-5^ uM
Compound: CN(CCc1ccccc1)CC1OC(OC2C(N)CC(N)C(O)C2OC2OC(CO)C(OC3OC(CN)C(O)C(O)C3N)C2O)C(N)C(O)C1O (stereo not drawn) [Compound 15k]

Compound: NCC1OC(OC2C(CO)OC(OC3C(O)C(N)CC(N)C3OC3OC(CNCCc4ccc(C5CCCCC5)cc4)C(O)C(O)C3N)C2O)C(N)C(O)C1O (stereo not drawn) [Compound 15m]
MIC S. Aureus ([1]; Example 109): 0.3 to 0.6 µM | MIC E. Coli. ([2]; Example 109): 1.3 to 2.5 µM

Compound: COc1ccccc1CCNCC1OC(OC2C(N)CC(N)C(O)C2OC2OC(CO)C(OC3OC(CN)C(O)C(O)C3N)C2O)C(N)C(O)C1O (stereo not drawn) [Compound 15n]
MIC S. Aureus ([1]; Example 109): 0.2 to 0.3 µM and 0.3 to 0.6 µM

Compound: NCC1OC(OC2C(CO)OC(OC3C(O)C(N)CC(N)C3OC3OC(CNCCc4ccc(C(F)(F)F)cc4)C(O)C(O)C3N)C2O)C(N)C(O)C1O (stereo not drawn) [Compound 15q]
MIC S. Aureus ([1]; Example 109): 0.3 to 0.6 µM | MIC E. Coli. ([2]; Example 109): 1.3 to 2.5 µM

Compound: COc1ccc(CCNCC2OC(OC3C(N)CC(N)C(O)C3OC3OC(CO)C(OC4OC(CN)C(O)C(O)C4N)C3O)C(N)C(O)C2O)cc1 (stereo not drawn) [Compound 15r]
MIC S. Aureus ([1]; Example 109): 0.3 to 0.6 µM | MIC E. Coli. ([2]; Example 109): 1.3 to 2.5 µM

Compound: NCC1OC(OC2C(CO)OC(OC3C(O)C(N)CC(N)C3OC3OC(CN4CCC5CCCCC54)C(O)C(O)C3N)C2O)C(N)C(O)C1O (stereo not drawn) [Compound 15s]
MIC S. Aureus ([1]; Example 109): 0.3 to 0.6 µM | MIC E. Coli. ([2]; Example 109): 1.3 to 2.5 µM

Compound: NC1CC(N)C(OC2OC(CO)C(O)C(O)C2N)C(OC2OC(CO)C(O)C2OCCNCCc2ccccc2)C1O (stereo not drawn) [Compound 30c]
MIC S. Aureus ([1]; Example 107): 12 to 25 µM | MIC E. Coli. ([2]; Example 107): >100 µM

Compound: NCC1OC(OC2C(CF)OC(OC3C(O)C(N)CC(N)C3OC3OC(CO)C(O)C(O)C3N)C2O)C(N)C(O)C1O (stereo not drawn) [Compound 61, 5″-deoxy-5″-fluoro paromomycin]
Kd ([3]; FTICR mass spectrometry, run at 100 nM RNA, Example 105): 1100 nM | MIC ([1]; Example 105): 12 to 25 µM (≈ 7.41 to 15.4 µg/mL) | IC50 ([5]; Example 105): 300 nM | MIC ([2]; Example 105): > 50 µM

Compound: NC[C@@H]1O[C@H](O[C@H]2[C@@H](O)[C@H](O[C@@H]3[C@@H](O)[C@H](N)C[C@H](N)[C@H]3O[C@H]3O[C@H](CN)[C@@H](O)[C@H](O)[C@H]3N)O[C@@H]2CO)[C@H](N)[C@@H](O)[C@@H]1O [Neomycin B, reference compound]
Kd ([3]; Example 106): 40 nM | Kd ([4]; Example 106): 300 nM | IC50 ([5]; Example 106): 200 nM

Compound: neomycin [reference compound]
# Dead mice/Total mice in group ([6]; 0.5 mg/kg subcutaneously): 7/10 | # Dead mice/Total mice in group ([6]; 1 mg/kg subcutaneously): 10/10 | # Dead mice/Total mice in group ([6]; 2 mg/kg subcutaneously): 4/10
